Results published in US20170131285A1, “METHODS AND COMPOSITIONS FOR DIAGNOSING, MONITORING AND TREATING CANCER” (INSERM (Institut National de la Sante et de la Recherche …, priority 2014, published 2017).

What was measured:
HCT116 cells = experiment: HSP70-exosomes release from HCT116 cells treated with chemotherapy drugs (BLI, flow cytometry); assay type: cell-based, human; settings: for amount of HSP70-exosomes released, dose-response / number of exosomes at higher doses: HCT116, 48 h; for amount of HSP70-exosomes released, dose-response: concentrations inducing a relatively low amount of cell death, flow cytometry; for number of exosomes at higher doses: doses inducing more than 40% cell death; for amount of HSP70-exosomes released, extent of increase: HCT116, toxic equivalent concentrations: oxaliplatin 5 μM, 5FU 3 μM, paclitaxel 50 nM, gemcitabin 10 μM, doxorubicin 2.5 μM, BLI
Description: FIG. 7: Effect of chemotherapy drugs on HSP70-exosomes release. A) Association curves of HSP70-exosomes isolated from the supernatant of HCT116 cells treated or not with oxaliplatin (5 μM), 5FU (3 μM), paclitaxel (50 nM), gemcitabin (10 μM) and doxorubicin ([…]). For the BLI, biotinylated A8 was immobilized on streptavidin sensor tips, n=3. B-C) HCT116 cells were treated with 5FU (3, 12, 24 and 36 μM) or oxaliplatin (5, 20, 40 and 60 μM) or doxorubicin (2.5, 10, and 20 μM) during 48 h. B) concentration of HSP70-exosomes released was measured by flow cytometry. C) measured apoptosis of HCT116 (7AAD and FITC-Annexin V).
Cells were cultured in medium depleted from serum-derived exosomes. Supernatants were collected from cell lines and sequentially centrifuged at 300 g for 10 minutes (4° C.) and at 2,000 g for 10 minutes. Then, exosomes were ultracentrifugated at 100,000 g for 70 minutes and washed in PBS. The same protocol was used for urines and blood samples. To evaluate exosome concentrations, we used a Nano Sight LM10 instrument (NanoSight, Amesbury, UK).
Protein-protein interaction experiments were conducted with an Octet Red instrument (ForteBio, USA). The ligand (A8 or TLR2) was biotinylated using EZ-Link NHS-PEG4-biotin (2 nM, 30 min, RT, Thermo Fisher Scientific, Germany) and immobilized on streptavidin sensors (96-well plate black, ForteBio, USA). Functionalized sensors were incubated in PBS (10 min) then incubated with exosomes (10^6, from cancer cells lines or normal cells or mice blood or human urine, for 120 or 600 seconds) or HSP70 (concentration range from 2.5 μM to 0.52 nM) or cmHSP70 (1/1,000). All sensorgrams were corrected for baseline drift by subtracting a control sensor exposed to running buffer only. Each KD was determined with a 1:1 stoichiometry model using a global fit with Rmax unlinked by sensor (ForteBio, Data analysis software version 7.1.0.89).
Exosomes from cancer cells lines or normal cells were bound to surfactant-free white aldehyde-sulfate latex beads ([…], Invitrogen) and concentrated at 1·10^4 beads/μL. Exosomes (30 μg) were incubated with the beads suspension for 15 min and then for 1 h at room temperature (RT) in final volume of 1 mL PBS. Beads were saturated with glycine (100 mM) for 30 minutes at RT and washed twice with PBS supplemented by 3% of FBS. Expression of membranar HSP70 on cells (normal and cancerous) was determined by flow cytometry using cmHSP70 antibody. MSC2 and HCT116 cell death was measured by PS exposure, cells stained with 7AAD and FITC-Annexin V conjugate. All analyses were performed on a LSRII flow cytometer (BD Bioscience).

B16F10 tumors = experiment: B16F10 melanoma tumor model in C57/BL6 mice; assay type: in vivo, mouse; settings: B16F10 tumor-bearing C57/BL6 mice, day 18; A0 or A8 3 mg/kg i.p. every two days; cisplatin single i.p. dose; 6 animals per group
Description: (§1) FIG. 5: A8 anti-tumor effect in mice is associated to MDSC and an immune anti-tumor response. (A) Mice were sc injected with B16F10 cells (5×10^4). On day 4, when tumor size was about 0.9 mm^3, animals were treated every two days until the end of the experiment with A0 or A8 (3 mg/kg dissolved in PBS, i.p injection). On day 5, half the animals were treated with cisplatin as a single dose (CDDP, i.p injection, 5 mg/kg). At day 18, the percentage of Gr1^+ CD11b^+ cells in the spleen collected from the different groups of mice was analyzed by flow cytometry (6 animals per group). As a MDCS negative control (Ctl) we used animals with no tumor cells injected. Right panels, a representative immunoblot of pSTAT3 in the MDSC (Gr1^+ CD11b^+ cells) isolated from the spleen of control animals (A0/PBS) or A8 and CDDP-treated animals (A8/CDDP). 14-3-3 is used as a loading control. (B) Analysis of tumor growth in the animals described above. Tumor size was measured every two days (6 animals per group). The white symbols represent the tumors from animals treated with cisplatin. (C) HSP70-exosomes isolated from B16F10 cells treated or not with cisplatin (CDDP, 25 μM) were determined by flow cytometry. Data represent the percentage of MFI+/−SD (n=3); *, p<0.05. (D) Association curves of HSP70-exosomes present in tumor-bearing mice sera treated or not with cisplatin (5 mg/kg). For the biolayer interferometry, biotinylated A8 was immobilized on streptavidin sensor tips. Curves represent mean values of triplicate measurements for each concentration (for each curve, the blood of 5 mice per group was pooled).
Exponentially growing B16F10 were harvested and resuspended in an RPMI medium without FBS. In vivo studies were performed in wild-type C57/BL6 mice (Charles River). B16F10 cells (5·10^4) were injected s.c. into the right flank Tumor volumes were evaluated every 2 days. Mice were treated with a control peptide aptamer A0 (3 mg/kg) or the HSP70 aptamer A8 (3 mg/kg) and half mice were treated with cisplatin (CDDP, […]). The animals were treated according to the guidelines of the Ministère de la Recherche et de la Technologie, France. All experiments were approved by the Comité d'Ethique de l'Université de Bourgogne.
MDSC cell isolation and analysis: Single-cell suspensions were prepared from spleens, and red cells were removed using ammonium chloride lysis buffer. Gr-1+ cells were isolated from spleens of different group of tumor-bearing mice or naive mice by labeling the cells with PE Cy7 Ab to Gr-1, then using magnetic PE Cy7 beads and LS MACS columns (Miltenyi Biotec). For extracellular staining of immune markers, single-cell suspensions were prepared. We incubated 1·10^6 freshly prepared cells with fluorochrome-coupled CD11b antibody (eBioscience). All events were acquired by a BD Bioscience LSR-II device and analyzed with FlowJo (Tree Star).
Animals were killed 18 days after cell injection. The site of tumor cell injection was resected and snap-frozen in liquid nitrogen. An immunohistochemical study of tumor-infiltrating inflammatory cells was performed on acetone-fixed 5 μm cryostat sections.
Next, we tested whether A8 was also able to block the immunosuppressive effect of MDSC in an in vivo cancer model. We performed subcutaneous injection at day 0 of B16F10 cells or media as a control in C57/BL6 mice. When tumor size reached about 0.9 mm^3 ([…]), mice were treated i.p. with a control peptide aptamer (A0) or A8 every two days until the end of the experiment. When indicated, half of the animals received cisplatin (CDDP, […], i.p.) as a single dose. Tumor growth was measured every two days. After 18 days, we analyzed the percentage of MDSC present in mice spleen (6 animals per group) by FACS using the specific markers Gr1^+ and CD11b^+ (FIG. 5A). […]

B16F10 cells = experiment: HSP70-exosomes released by cultured B16F10 cells, flow cytometry; assay type: cell-based, mouse; settings: cisplatin 25 μM, FACS
Description: as §1, with “The white symbols represent the tumors from animals treated with cisplatin.” left out, “Data represent the percentage of MFI+/−SD (n=3); *, p<0.05. (D) Association curves of HSP70-exosomes present in tumor-bearing mice sera treated or not with cisplatin (5 mg/kg). For the biolayer interferometry, biotinylated A8 was immobilized on streptavidin sensor tips. Curves represent mean values of triplicate measurements for each concentration (for each curve, the blood of 5 mice per group was pooled).” left out
B16F10, CT26, HCT116 and SW480 cells were cultured for 48 h or 24 h with cisplatin (CDDP) treatment in medium depleted from serum-derived exosomes by overnight centrifugation at 100,000 g. […] The concentration of exosomal proteins was quantified by Lowry assay (Biorad). […]

[1] = system: B16F10 tumor-bearing mice; experiment: HSP70-exosomes in blood of tumor-bearing mice, A8-BLI protocol; assay type: in vivo, mouse; settings: cisplatin 5 mg/kg, BLI with A8 ligand
MSC2 cells = experiment: pSTAT3 western blot in MSC2 cells incubated with tumor-derived exosomes; assay type: cell-based; settings: exosomes from CT26, B16F10, HCT116, SW480; 4 h and 6 h; aptamer 16 μM
Description: FIG. 4: A8 blocks the activation and proliferation of MSC2 cells. (A) IL-6 concentration was determined by ELISA in the supernatant of MSC2 cells incubated or not for 24 h with exosomes (from B16F10) in the presence or absence of A8. *, p<0.05, (n=3). (B) A representative image of a western blot showing the kinetics of STAT3 phosphorylation in MCS2 cells incubated or not with exosomes isolated from B16F10, CT26 or HCT116 cells together with a peptide control (TDE) or A8 (TDE/A8). 14-3-3 is used as a loading control. In the right panels, the amount of pSTAT3 was quantified by densitometric analysis. *, p<0.05, n=4.
Five millions of MSC2 cells were incubated with or without exosomes isolated from B16F10, CT26, HCT116 or SW480 cells in the presence or absence of A8 during 4 h or 6 h. Cells were isolated, lysed and analysed for pSTAT3 by western blotting.
MSC2 (2·10^6) or MDSC (2·10^6) were incubated alone or with exosomes (from B16F10, CT26, HCT116, SW480) in the absence or presence of A8 or A17 (16 μM) during 6 hours (RPMI 10% FBS, 5% of CO2 at 37° C.). Every 2 hours, […] cells were sampled and centrifugated 5 min at 300 g. Cells were lysed in lysis buffer (50 mM HEPES (pH 7.6), 150 mM NaCl, 5 mM EDTA, and 0.1% NP40 and anti-phosphatases, Roche). Then, pSTAT3 and STAT3 expression were analyzed by western blotting.

Row | Compound | amount of HSP70-exosomes released, dose-response (HCT116 cells) | number of exosomes at higher doses (HCT116 cells) | amount of HSP70-exosomes released, extent of increase (HCT116 cells) | also measured
1 | O=c1[nH]cc(F)c(=O)[nH]1 [5-fluorouracil] | increased with drug concentration | drastically decreased | greater | –
2 | N.N.[Cl][Pt][Cl] [cisplatin] | increased with drug concentration | drastically decreased | – | percentage of MDSC (Gr1+ CD11b+) in spleen (B16F10 tumors): 9+/−0.9%; amount of HSP70-exosomes released by B16F10 cancer cells (B16F10 cells): strongly increased; amount of HSP70-exosomes in the blood [1]: much stronger
3 | COc1cccc2c1C(=O)c1c(O)c3c(c(O)c1C2=O)C[C@@](O)(C(=O)CO)C[C@@H]3O[C@H]1C[C@H](N)[C@H](O)[C@H](C)O1 [doxorubicin] | increased with drug concentration | drastically decreased | lesser | –
4 | Nc1ccn([C@@H]2O[C@H](CO)[C@@H](O)C2(F)F)c(=O)n1 [gemcitabine] | – | – | induce an increase in the amount of HSP70-exosomes | –
5 | O=C1[O][Pt]2([NH][C@@H]3CCCC[C@H]3[NH]2)[O]C1=O [oxaliplatin] | – | – | greater | –
6 | CC(=O)O[C@H]1C(=O)[C@@]2(C)[C@H]([C@H](OC(=O)c3ccccc3)[C@]3(O)C[C@H](OC(=O)[C@H](O)[C@@H](NC(=O)c4ccccc4)c4ccccc4)C(C)=C1C3(C)C)[C@]1(OC(C)=O)CO[C@@H]1C[C@@H]2O [paclitaxel] | – | – | induce an increase in the amount of HSP70-exosomes | –
7 | YCAYYSPRHKTTF (Synthetic Aptamer A17) [reference compound] | – | – | – | STAT3 phosphorylation (activation) in MSC2 induced by tumor-derived exosomes (MSC2 cells): did not interfere
